Results: patent US11707500B2, “Growth promoting peptides, and uses thereof” (NURITAS LIMITED, priority 2015, dated 2023)

Legend:
[1] = system: Human Dermal Fibroblasts (HDF); assay: BrdU cell proliferation assay; assay type: cell-based; conditions: HDF incubated 24 h with 5, 0.5 or 0.05 μg/ml synthetic peptide; percentage of untreated control
Procedure: BrDu is incorporated into newly synthesised DNA strands of actively proliferating cells. Following partial denaturation of double stranded DNA, Brdu is detected immunochemically allowing the assessment of the population of cells which are synthesizing DNA.
Human Dermal Fibroblasts (HDF—Sigma 10605a) were seeded in a 96 well plate at 10,000 cells per well in DMEM containing 10% fetal calf serum (FCS), 1% Pen/strep, 1% L-glutamine and allowed to adhere for 24 h.
Following the initial 24 h incubation the cells were incubated with 5 μg/ml, 0.5 μg/ml or 0.05 μg/ml synthetic peptide for 24 h respectively.
After 18 h incubation with synthetic peptides 20 μl BrDu reagent was added to each well.
At 24 h incubation the cell were fixed and the amount of […] was measured using the BrdU Cell Proliferation Assay, all steps were carried out according to the manufacturer's instructions.
Results were calculated as a percentage of the untreated control. An increase in optical density reading indicates greatER incorporation of BrDu and increase cell proliferation.

[2] = system: Human Dermal Fibroblasts (HDF); assay: BrdU cell proliferation assay; assay type: cell-based; conditions: text on FIGS. 1-100; incubated with synthetic peptide 24 h; vs untreated control

| Substance | INCREASE IN PROLIFERATION [1] [%] | increase in HDF cell proliferation [2] [%] |
| --- | --- | --- |
| 73 (ASSNLDLLGFG) [compound 73] | 16 | – |
| 74 (DEEEEQGEEEINK) [compound 74] | 29 | – |
| 83 (SRGPIYSNE) [compound 83] | 32 | – |
| 84 (EDDEEEEQGEEEINK) [compound 84] | 20 | – |
| 85 (DDEEEEQGEEEINK) [compound 85] | 35 | – |
| 93 (ITASSNLNLLGFG) [compound 93] | 26 | – |
| 97 (LVIPVNGPGKFE) [compound 97] | 26 | – |
| 98 (LVIPVNGPGKFEA) [compound 98] | 49 | – |
| 105 (LVIPVNGPGKF) [compound 105] | 40 | – |
| 112 (VVIIPAGHPVAITASSNLNLLGFG) [compound 112] | 15 | – |
| 114 (YPQLQDLDL) [compound 114] | 119 | – |
| ASSNLDLLGFG [SEQ ID NO: 73] | – | 16 |
| DDEEEEQGEEEINK [SEQ ID NO: 85] | – | 35 |
| DEEEEQGEEEINK [SEQ ID NO: 74] | – | 29 |
| DSINALEPDHR [SEQ ID NO: 474] | – | 121 |
| EDDEEEEQGEEEINK [SEQ ID NO: 84] | – | 20 |
| EEGYYGEQQQQPGMTR [SEQ ID NO: 249] | – | 30 |
| EGYYGEQQQQPGMTR [SEQ ID NO: 247] | – | 28 |
| EVEERSQNIF [SEQ ID NO: 341] | – | 83 |
| FHMPP [SEQ ID NO: 455] | – | 47 |
| FWM (FWMA) [SEQ ID NO: 457] | – | 114 |
| GAFTPLQYK [SEQ ID NO: 365] | – | 58 |
| GAFTPLQYKSYQD [SEQ ID NO: 359] | – | 15 |
| GALMLPHYN [SEQ ID NO: 504] | – | 119 |
| GALMLPHYNSR [SEQ ID NO: 505] | – | 118 |
| GYYGEQQQQPGMTR [SEQ ID NO: 248] | – | 86 |

| Substance | INCREASE IN PROLIFERATION [1] [%] | increase in HDF cell proliferation [2] [%] |
| --- | --- | --- |
| HMPSS [SEQ ID NO: 460] | – | 38 |
| HPMS [SEQ ID NO: 495] | – | 68 |
| HPRPPKPDAPR [SEQ ID NO: 452] | – | 76 |
| HRFR [SEQ ID NO: 461] | – | 85 |
| HRRS [SEQ ID NO: 462] | – | 15 |
| HSPR [SEQ ID NO: 463] | – | 100 |
| HWF (HWFA) [SEQ ID NO: 464] | – | 18 |
| IDGYDTPVEGR [SEQ ID NO: 222] | – | 110 |
| IEKILLEE [SEQ ID NO: 337] | – | 8 |
| IFEDAITIPGR [SEQ ID NO: 477] | – | 81 |
| ITASSNLNLLGFG [SEQ ID NO: 93] | – | 26 |
| IYGPDTGVDYKDNQMR [SEQ ID NO: 226] | – | 30 |
| KTLDYWPSLR [SEQ ID NO: 479] | – | 106 |
| LDALEPDNRIESE [SEQ ID NO: 478] | – | 76 |
| LEPDNR [SEQ ID NO: 485] | – | 81 |
| LGAPDVGHPM [SEQ ID NO: 403] | – | 51 |
| LQQAPPPPQR [SEQ ID NO: 453] | – | 25 |
| LRGFSK [SEQ ID NO: 501] | – | 43 |
| LVIPVNGPGK [SEQ ID NO: 121] | – | 48 |
| LVIPVNGPGKF [SEQ ID NO: 105] | – | 40 |
| LVIPVNGPGKFE [SEQ ID NO: 97] | – | 26 |
| LVIPVNGPGKFEA [SEQ ID NO: 98] | – | 49 |
| LVSHPIAAHEGR [SEQ ID NO: 482] | – | 113 |
| MFRR [SEQ ID NO: 465] | – | 96 |
| MPMP [SEQ ID NO: 497] | – | 58 |
| MPPS [SEQ ID NO: 467] | – | 90 |

| Substance | INCREASE IN PROLIFERATION [1] [%] | increase in HDF cell proliferation [2] [%] |
| --- | --- | --- |
| MPRR [SEQ ID NO: 468] | – | 82 |
| NGVLRPGQL [SEQ ID NO: 272] | – | 97 |
| NYDEGSEPRVPAQRE [SEQ ID NO: 158] | – | 21 |
| PHMP [SEQ ID NO: 470] | – | 119 |
| PHMPS [SEQ ID NO: 471] | – | 38 |
| PNSM [SEQ ID NO: 499] | – | 113 |
| PRRF [SEQ ID NO: 472] | – | 77 |
| RHGEWGPSY [SEQ ID NO: 480] | – | 102 |
| RHGEWRPSY [SEQ ID NO: 146] | – | 80 |
| RSQNIF [SEQ ID NO: 502] | – | 68 |
| SEEGYYGEQQQQPGMTR [SEQ ID NO: 253] | – | 112 |
| SRGPIYSNE [SEQ ID NO: 83] | – | 32 |
| SSEEGYYGEQQQQPGMTR [SEQ ID NO: 252] | – | 111 |
| TIKLPAGTTSYLVNQDDEEDLRLVD [SEQ ID NO: 181] | – | 33 |
| TVFNGVLRPGQLL [SEQ ID NO: 270] | – | 47 |
| VGWGEQPWSPY [SEQ ID NO: 454] | – | 38 |
| VIPAGHPVAVR [SEQ ID NO: 330] | – | 18 |
| VIPVNGPGK [SEQ ID NO: 124] | – | 15 |
| VVIIPAGHPVAITASSNLNLLGFG [SEQ ID NO: 112] | – | 15 |
| WDP (WDPA) [SEQ ID NO: 500] | – | 6 |
| WMK (WMKA) [SEQ ID NO: 473] | – | 41 |
| YGEQQQQPGMTR [SEQ ID NO: 256] | – | 117 |
| YLRGFS [SEQ ID NO: 503] | – | 125 |
| YPQLQDLDL [SEQ ID NO: 114] | – | 119 |
| YRELGAPDVGHPMSE [SEQ ID NO: 410] | – | 73 |
| YYGEQQQQPGMTR [SEQ ID NO: 257] | – | 118 |
